Data reported in patent US9822128B1, “Substituted spirooxindoles” (KING SAUD UNIVERSITY, priority 2017, dated 2017).

What was measured:
HCT-116 cells = assay: Wound-healing assay; assay type: cell-based, human; conditions: HCT-116, 1 μM, images at 0, 4, 24 and 48 hours, vs DMSO
Experimental: HCT-116 cells were seeded in 6 well plate as 10*10^4 cells per ml (2 ml in each well) and incubated overnight at 37° C. and 5% CO2. On the second day, a scratch was created in each well by using a sterile P200 tip, and then the medium was replaced with fresh medium containing either DMSO or 1 μM of compound 4d. Photomicrograph images were taken at different time points (0, 4, 24 and 48 hours) to monitor the wound closure. After that, the cells were washed two times with ice-cold 1×PBS and fixed with ice-cold methanol for 20 min at 4° C. The fixed cells were washed two times with 1×PBS and stained with 0.5% crystal violet for 30 min. The extra stain was washed off by dH2O until no color in the washing is observed. The images were captured by Gx microscopes (GXMGXD202 Inverted Microscope) (10× Eyepiece) after staining with crystal violet. The size of the wound was measured by using ImageJ 1.47v software. […] This confirms the ability of compound 4d to enhance tumor suppressor activities.

HCT-116 = assay: Cell cycle analysis (propidium iodide flow cytometry); assay type: cell-based, human; conditions: HCT-116, 2 μM, 24 hours
Experimental: The cells (HCT-116) were seeded 5*10^4 cells/mL in a 6-well plate (2 mL/well) and allowed to adhere overnight at 37° C. and 5% CO2. The cells were incubated with or without 2 μM of compound 4d for 24 hours. The cells were washed twice with ice-cold 1×PBS and collected after trypsinzation. The cell pellet was washed two times with ice-cold 1×PBS and fixed with ice-cold 70% ethanol overnight at −20° C. After that, the cells were washed once with ice-cold PBS and the second wash was done with ice-cold PBS-2% FBS. The cell pellet was re-suspended in 500 μL Propidium Iodide (PI)/RNase (BD Biosciences, BDB550825) staining solution for 15 min at room temperature. The samples were incubated for 15 min in the dark and analyzed within 1 hour by BD Accuri™ C6 Plus flow cytometer. […] The arrest of the cell cycle in subG1 indicates the induction of apoptosis.

Vero-B = assay: MTT cytotoxicity assay, normal kidney cell line; assay type: cell-based, African green monkey; conditions: Chlorocebus sabaeus, Vero B; Table 1; MTT, 48 hrs incubation; read-out: VERO-B (IC50% μM)
Experimental: The cytotoxic activity of the compounds was tested against different mammalian cancer cells, prostate carcinoma cells (PC-3), hepatocellular carcinoma (HepG2) and colon cancer cells (HCT-116) and against African green monkey kidney cell line (Vero-B). The cell lines were obtained from American Type Culture Collection (ATCC). The cells were cultivated at 37° C. and 10% CO2 in DMEM (Lonza, 12-604F) medium supplemented with 10% fetal bovine serum (FBS, Lonza, Cat. No. 14-801E), 100 IU/ml penicillin and 100 μg/ml streptomycin (Lonza, 17-602E). Cisplatin (cis-diamineplatinum (II) dichloride) was used as a positive control and was obtained from Sigma then dissolved in 0.9% saline then stored as 8 mM stock solution at −20° C. The synthesized compounds were solubilized in DMSO and stored at −20° C. 0.5% crystal violet was prepared in Methanol and was used to stain the viable cells (Feoktistova, Geserick et al. 2016). Crystal violet binds to proteins and DNA in the adherent and viable cells so the stain is an indicator for the viability of the treated cells. The viability of the cells were quantified by using MTT reagent (3-(4,5-dimethylthiazol-2-yl)-2,5-diphenyl tetrazolium bromide), which measure the activity of mitochondrial dehydrogenase in the viable cells (Slater, Sawyer et al. 1963, Mosmann 1983).
Cytotoxicity was further assayed as follows. The cells were seeded in 96-well plate as 5*10^4 cells/mL (100 μL/well). A serial dilutions of tested compounds or cisplatin (100, 30, 10, 3.3, 1.1 or 0.37 μM) was added after overnight incubation of the cells at 37° C. and 5% CO2. DMSO was used as a control (0.1%). The cells were incubated for 48 hrs. After that, 15 μl of MTT (5 mg/mL PBS) was added to each well and incubated for another 4 hours. The formazan crystals were solubilized by 100 μL acidified SDS solution (10% SDS/0.01 M HCl). The absorbance was measured after 14 hours of incubation at 37° C. and 5% CO2 at 570 nm by Biotech plate reader. Each experiment was repeated three times and standard deviation was calculated (±). IC50% was calculated as the concentration that cause 50% inhibition for cell growth. The growth of the cells were monitored and the images were acquired by Gx microscopes (GXMGXD202 Inverted Microscope) (10× Eyepiece) after staining with crystal violet.

In the case of `O=C(/C=C/c1ccc(Cl)cc1Cl)[C@H]1[C@H](c2ccc(Cl)cc2Cl)[C@H]2CSCN2[C@]12C(=O)Nc1ccccc12` [Compound 4d, (3R,6′S,7′R,7a′S)-7′-(2,4-dichlorophenyl)-6′-((E)-3-(2,4-dichlorophenyl)acryloyl)-1′,6′,7′,7a′-tetrahydro-3′H-spiro[indoline-3,5′-pyrrolo[1,2-c]thiazol]-2-one], the wound closure (HCT-116 cells) was “inhibited wound closure”, the “cells arrested in G2/M” value (HCT-116) was “around 34.5%” and the “cells arrested in subG1” value (HCT-116) was ~15.5%. The IC50 (Vero-B) was 5 µM.
